Measurements published in a melting point compilation (Tetko et al.; mined from patent text by program, amines drawn as free bases though some values may be those of a salt).

| Structure (SMILES) | melting point |
| --- | --- |
| COc1cc(Cc2nnc(N[C@H]3CC[C@H](C(C)C)CC3)c3ccccc23)ccn1 | 65 to 66 °C |
| COC(=O)CN1C(=S)C(C(C)C)Sc2ccccc21 (stereo not drawn) | 99 to 100 °C |
| Cc1cc2c(cc1Cl)N(C(=O)Nc1ccc(C)c(-c3cccnc3)c1)CC2 | 202 to 203 °C |
| CCN(CC)CCNC(=O)c1cc(Cl)c(N)cc1OCC(=O)c1cccs1 | 135 to 139 °C |
| Nc1nc(N)c(-c2cc(Cl)cc(Cl)c2Cl)c(CO)n1 | 101 to 105 °C |
| Cc1nc(Nc2ccc(Cl)cc2)sc1C(=O)c1sc(Nc2ccc(Cl)cc2)nc1C | 184 to 186 °C |
| C=CCC1(CC=C)CCC(=Cc2ccc(Cl)cc2)C1(O)Cn1cncn1 (stereo not drawn) | 128 °C |
| CCOC(=O)CC(NS(=O)(=O)c1cccc(-c2cccc(NC(=NC#N)NC3CC3)c2)c1)c1ccccc1 (stereo not drawn) | 82 °C |
| CCCOC(=O)C1=NN(c2ccccc2)C(C(=O)OCCC)=NN1c1ccccc1 | 82.5 to 83 °C |
| CCOC(=O)c1cc2c3n(ccc-2n1)CC(C)=N3 | 201 to 203 °C |
| C#CCOc1cccc(OC)c1-c1nc2cnncc2[nH]1 | 259 °C |
| COc1ccc(C(=O)Nc2ccccc2C(O)c2ccccn2)cc1 (stereo not drawn) | 128 °C |
| Nc1nccn2c(C3CCC3)nc(-c3ccccc3)c12 | 164 to 166 °C |
| O=C(O)c1ccc(COc2ccc3c(c2)CCN(C2CCN(C4CCC4)CC2)C3=O)cc1 | 269 to 270 °C |
| COc1cc2c(Nc3ccc(C)c(OC(C)=O)c3)ncnc2cc1OCc1ccsc1 | 201 to 203 °C |
| CCCCNC(=O)CCC(=O)O | 93.5 to 94.5 °C |
| CNC(=O)c1ccc(C)c(-c2nc(SC)nc3c2CNC(=O)N3c2c(F)cccc2F)c1 | 273 to 275 °C |
| OCCC(O)OCn1ccc2c(Cl)ncnc21 (stereo not drawn) | 114 °C |
| CCOC1CC2(C)C(CCC3C4CCC(C(C)=O)C4(C)CC(NC(=O)OCC(Cl)(Cl)Cl)C32)CC1OC(=O)OCC(Cl)(Cl)Cl (stereo not drawn) | 147 to 149 °C |
| Nc1nc(C(=O)N2CCN(Cc3ccc4c(c3)OCO4)CC2)c(-c2ccncc2)s1 | 216 to 217 °C |
| CCOC(=O)N1CCC(=C2c3ccccc3CCc3cccnc32)CC1 | 106 to 107 °C |
| O=C(NO)c1ccc2c(c1)CN(C(=O)c1ccc3ccccc3n1)C2 | 162 to 166 °C |
| CC(=O)OCC(=O)Nc1cc(C#N)cc(NC(=O)COC(C)=O)c1Cl | 193 to 195 °C |
| O=[N+]([O-])c1ccc(OCC(O)COc2ccc([N+](=O)[O-])cc2)cc1 | 144 to 145 °C |
| COc1cc(Cn2c(=S)sc3ccccc32)cc(OC)c1O | 141 to 142 °C |

| Structure (SMILES) | melting point |
| --- | --- |
| O=C(Sc1ccccn1)c1ccncc1 | 115 °C |
| Cc1nn(C)c(C(N)=O)c1Cl | 101 °C |
| COc1ccc2c([N+](=O)[O-])c(-c3ccc(OCc4ccccc4)cc3)[nH]c(=O)c2c1 | 252 to 254 °C |
| CN1N=C2C(=Cc3ccccc3)CN(C(=O)CCl)CC2C1c1ccccc1 (stereo not drawn) | 88 to 90 °C |
| Nc1ccccc1NCCO | 105 to 106 °C |
| Clc1cccc(-c2ccc3nncn3n2)c1 | 175 to 177 °C |
| c1cc2c(cn1)ncn2CCCCc1nnnn1C1CCCCC1 | 93 to 95 °C |
| Nc1cc(Cl)c(OCC(F)(F)F)cc1F | 40 to 41 °C |
| Cc1ccc2c(c1)C=C(N1CCN(CCN3CCOC3=O)CC1)c1cc(Cl)ccc1S2 | 194 to 196 °C |
| Cc1oc(-c2ccccc2)nc1CCOc1ccc(C(=O)O)c(O)c1 | 192 to 194 °C |
| CCC(CC)n1c(=O)ccc2cnc(S(C)=O)nc21 (stereo not drawn) | 111 to 114 °C |
| CCOC(=O)C(C)Oc1ncn(-c2ccc(OC(F)(F)F)cc2)n1 (stereo not drawn) | 52 to 53 °C |
| CCOC(=O)c1cn(Cc2ccccc2)nc1OCc1ccc(OCc2nc(-c3ccccc3)oc2C)c(OC)c1 | 154 to 155 °C |
| Cc1cc(-c2cnn3c(C(F)(F)F)cc(-c4cccc(C(F)(F)F)c4)nc23)ccn1 | 232 °C |
| Cc1ccc2c3c(ccc2n1)OC[C@H](CN1CCC(Oc2ccc4c(c2)NC(=O)CO4)CC1)O3 | 149 to 150 °C |
| Oc1cc(Cl)c2nc(-c3ccc(O)c(F)c3)cc(Br)c2c1 | 184 to 186 °C |
| O=C(Oc1ccccc1)c1n[nH]c2c(=O)[nH]c3cc(Cl)ccc3c(=O)c12 | 265 °C |
| CCOc1ccc(S(=O)(=O)n2nc(O)cc2N)cc1-c1nc2cccnc2c(=O)[nH]1 | 246 to 249 °C |
| COC(=O)c1cccc(C2=NC(C)(C)Cc3cc(OC)c4c(c32)CC(C)(C)O4)c1 | 137 to 138 °C |
| CCC(C)(C)O[C@H]1COC[C@H](NC(=O)c2nccc(OC)c2O)C(=O)O[C@@H](C)[C@@H]1OCC(C)C | 138 to 140 °C |
| CC(O)(c1ccc(F)cc1)C1CCN(CCCC(=O)c2ccc(F)cc2)CC1 (stereo not drawn) | 116 to 118 °C |
| Cc1noc(NS(=O)(=O)c2ccsc2C(=O)NCc2ccccc2)c1Br | 186 to 190 °C |
| NC(=O)N(O)C1C=C(c2cccc(Oc3ccc(Cl)cc3)c2)CC1 (single isomer, unassigned; (+)) | 143 to 144 °C |
| O=C(NCCO)/C(=C/c1ccc(OCC(F)F)cc1)NC(=O)c1ccc(OCCCC2CC2)cc1 | 149 to 151 °C |
| CCOC(=O)c1ccc2nccc(O)c2c1 | 233 to 234 °C |

| Structure (SMILES) | melting point |
| --- | --- |
| COC(=O)C(Sc1ccc(Cl)cc1)c1ccc(I)cc1 (stereo not drawn) | 44 to 46 °C |
| CC(C)c1cccc(C(C)C)c1NC(=O)C(Cc1ccc(OCc2ccccc2)cc1)NC(=O)CC(C)(C)C (stereo not drawn) | 209 to 212 °C |
| C[C@H](NC(=O)c1ccc([N+](=O)[O-])cc1F)C(=O)O | 136 to 138 °C |
| Cc1cc(Cl)ccc1OCC(=O)N1Cc2cccn2Cc2ccccc21 | 166 to 167 °C |
| CCCN(CCC)Cc1csc(-c2ncn3c2CN(C)C(=O)c2c-3ccc(F)c2Cl)n1 | 123 °C |
| CCOC(=O)c1cnc2c(N)c(Cl)c(F)cc2c1O | 268 to 270 °C |
| CC(=C(c1ccccc1)c1ccccc1)P(C1CCCCC1)C1CCCCC1 | 128 to 130 °C |
| CN1CCN(c2cc(Cl)cc3c2c(=O)n(Cc2cccc(N)c2)c(=O)n3Cc2ccccc2)CC1 | 260 to 265 °C |
| CC(=O)Nc1ccc(S(=O)(=O)N2CCN(c3c(F)cc4c(=O)c(C(=O)O)cn(C5CC5)c4c3F)CC2)cc1 | 282 to 284 °C |
| CCC1(CCI)C(=O)N2CC=CC(C(=O)OC)N2C1=O (stereo not drawn) | 95 to 97 °C |
| O=Cc1c(Br)nc(Sc2ccccc2)n1Cc1cc2c(cc1Cl)OCO2 | 155 °C |
| Cc1noc(NS(=O)(=O)c2ccsc2C(=O)Nc2ccccc2)c1C | 176 °C |
| CCCCc1c2c(nn1C)c(N)nc1ccccc12 | 202 to 203 °C |
| COc1ccc(C(=O)C2CCN(C(C)=O)CC2)cc1 | 102 to 105 °C |
| CCC(N)C1CCN(c2c(F)cc3c(=O)c(C(=O)O)cn(C4CC4)c3c2F)C1 (stereo not drawn) | 177 to 179 °C |
| CSc1ccc2nc(NN)sc2c1 | 173 to 176 °C |
| CC(C)(C)[N+]([O-])=Cc1c(O)cc(O)cc1O | 190 °C |
| CC(C)c1cc(CCCOc2ncccc2CC(=O)O)n(Cc2ccc(C(F)(F)F)cc2Cl)n1 | 114 to 115 °C |
| O=C(c1ccc2nonc2c1)N1CC=CC1 | 117 to 118 °C |
| CC1CN(c2ncc(C(=O)N(C)c3cccc(C(F)(F)F)c3)c(N)n2)C(=O)N1 (stereo not drawn) | 237 to 238 °C |
| CN1CCN(c2cc3c(Br)cccc3c(=O)[nH]2)CC1 | 240 to 241 °C |
| CCOc1ccc(-c2nc(CCC(=O)c3ncccc3OC)cs2)cc1OCC | 79.2 to 79.7 °C |
| COC(=O)CCC(=O)c1cc(NC(C)=O)ccc1OCC1CO1 (stereo not drawn) | 84 to 87 °C |
| CC(C)(F)Cn1c(N)nc2c(N)nc3ccccc3c21 | 251 °C |
| CC(C)CC(CNOCc1ccccc1)C(=O)O (racemic) | 73 to 75 °C |

| Structure (SMILES) | melting point |
| --- | --- |
| CC(=O)OCC1OC(Oc2ncn(Cc3ccc([N+](=O)[O-])cc3)c2C(N)=O)C(OC(C)=O)C1OC(C)=O (stereo not drawn) | 156 °C |
| NC(=O)CNC(=S)Nc1c(Cl)cccc1Cl | 189 to 191 °C |
| CCOC(=O)C1C=Nc2c(ccc3cccnc23)C1=O (stereo not drawn) | 242 to 244 °C |
| COCCCn1nnnc1-c1cc(-c2ccccc2C(F)(F)F)c(O)cc1O | 207 to 210 °C |
| c1ccc(COC2COC(c3ccco3)OC2)cc1 (stereo not drawn) | 50 to 52 °C |
| CC(C)CCCC(C)C1CCC2(C#N)C3C=CC4C(C)(C)C(OC(=O)c5ccccc5)CCC4(C)C3CCC12C (stereo not drawn) | 232 to 233 °C |
| CCc1nn(Cc2ccccn2)c2c(=O)[nH]c(-c3cc(S(C)(=O)=O)ccc3OCC(C)C)nc12 | 223 to 225 °C |
| CC(=O)S[C@H]1NC(=O)[C@H]1NC(=O)Cc1ccccc1 | 110 to 111 °C |
| Nc1ncc(CN2CCN(c3ccc(Cl)cc3)CC2)c(N)n1 | 296 to 298 °C |
| O=C(O)CCCCN(C(=O)c1ccc(Cl)cc1)c1ccccc1-c1ccccc1 | 170 to 173 °C |
| COC(=O)c1cc(C)cc(C(C)(C)C#N)c1 | 53.8 to 55.9 °C |
| NCCN1CCC(=C2c3ccccc3C=Cc3ccccc32)CC1 | 102 °C |
| Cc1nn(-c2c(Cl)cc(C(F)(F)F)cc2Cl)c(N)c1SC(C)(F)F | 123 to 125 °C |
| CCN(CC)c1ccc(C(=O)O)nc1 | 146 to 148 °C |
| CCCn1nc2c(N)nc3ccccc3c2c1CCCc1cc(-c2cccnc2)no1 | 192 to 193 °C |
| NC(Cc1ccc(OCc2ccccc2)cc1)C(=O)Nc1c(F)cc(F)cc1F (stereo not drawn) | 80.5 to 86.5 °C |
| C[C@@H](n1cnc2cc(Oc3ccc(Cl)cc3)ccc2c1=O)[C@](O)(Cn1cncn1)c1ccc(F)cc1F | 198 to 199 °C |
| O=C(NC(CCl)c1ccc(-c2ccc(SC(F)F)cc2)cc1)c1c(F)cccc1F (stereo not drawn) | 146 to 147 °C |
| CCOc1ccc2c(c1)n(C1CCCCC1)c(=O)n2S(=O)(=O)c1ccc(C(=O)Nc2ccccc2C)cc1OC | 179 °C |
| CN1C(=O)CCC2(C)c3ccc(Sc4cccc5cccnc45)cc3CCC12 (stereo not drawn) | 241 to 242 °C |
| CNC(=O)c1ccccc1Nc1nc(Nc2cc3c(cc2OC)NC(=O)CCC3(C)C)ncc1Cl | 197 to 199 °C |
| CCOC(=O)C1=C(COC2CCNCC2)NC(C)=C(C(=O)OC)C1c1ccccc1Cl (stereo not drawn) | 175 to 176 °C |
| Cc1c(Cl)c(=O)n(-c2cc(C(=O)OC(C)C)c(Cl)cc2F)c(=O)n1C | 150 to 153 °C |
